Source: patent US20040254162A1, “Oxazolidinone derivatives as antimicrobials” (priority 2001, published 2004)
Converted amounts (≈) assume the structure as drawn. “And” between values parts separate entries of the source, which are not always exact repeats. Identical values can stand only once.

Experiments:
P. acnes = assay: Agar dilution MIC, anaerobes; type: cell-based; conditions: single isolates, anaerobic agar dilution; for MIC: Cutibacterium acnes, read-out: MIC P. acnes
Fusobacterium varium = assay: Agar dilution MIC, anaerobes; type: cell-based; conditions: single isolates, anaerobic agar dilution; for MIC: Fusobacterium varium, read-out: MIC Fusobacterium varium
[1] = system: Peptostreptococcus prevotii; assay: Agar dilution MIC, anaerobes; type: cell-based; conditions: single isolates, anaerobic agar dilution; for MIC: Anaerococcus prevotii, read-out: MIC Peptostreptococcus prevotii
[2] = system: Peptostreptococcus magnum; assay: Agar dilution MIC, anaerobes; type: cell-based; conditions: single isolates, anaerobic agar dilution
Clostridium difficile = assay: Agar dilution MIC, anaerobes; type: cell-based; conditions: single isolates, anaerobic agar dilution; for MIC: Clostridioides difficile, read-out: MIC Clostridium difficile
Fusobacterium necrogenes = assay: Agar dilution MIC, anaerobes; type: cell-based; conditions: single isolate, anaerobic agar dilution; for MIC: Fusobacterium necrogenes, read-out: MIC Fusobacterium necrogenes
[3] = system: Peptostreptococcus asaccharolyticus; assay: Agar dilution MIC, anaerobes; type: cell-based; conditions: single isolates, anaerobic agar dilution
Eubacterium leutum = assay: Agar dilution MIC, anaerobes; type: cell-based; conditions: single isolates, anaerobic agar dilution; for MIC: Eubacterium, read-out: MIC Eubacterium leutum
anaerobic bacteria = assay: Agar dilution method for anaerobic bacteria, summary; type: cell-based
[4] = system: Prevotella melaninogenica; assay: Agar dilution MIC, anaerobes; type: cell-based; conditions: single isolates, anaerobic agar dilution; for MIC: Prevotella melaninogenica, read-out: MIC Prevotella melaninogenica
Prevotella intermedia = assay: Agar dilution MIC, anaerobes; type: cell-based; conditions: single isolates, anaerobic agar dilution; for MIC: Prevotella intermedia, read-out: MIC Prevotella intermedia
[5] = system: Prevotella (Bacteroides) disiens; assay: Agar dilution MIC, anaerobes; type: cell-based; conditions: single isolates, anaerobic agar dilution
[6] = system: Mycobacterium avium intracellulare; assay: Agar dilution method, mycobacteria; type: cell-based; conditions: for MIC50 / MIC90: Mycobacterium avium, 504 h, Middlebrook 7H10 agar, 21 days; for MIC50: read-out: MIC50; for MIC90: read-out: MIC90; for G.M.: geometric mean MIC
[7] = system: Mycobacterium tuberculosis; assay: microbe, parasite or virus in culture; conditions: 504 h
[8] = system: Mycobacterium tuberculosis; conditions: geometric mean MIC
Fusobacterium nucleatum = assay: Agar dilution MIC, anaerobes; type: cell-based; conditions: Fusobacterium nucleatum, single isolates, anaerobic agar dilution; read-out: MIC Fusobacterium nucleatum
Prevotella bivia = assay: Agar dilution MIC, anaerobes; type: cell-based; conditions: Prevotella bivia; single isolate, anaerobic agar dilution; read-out: MIC Prevotella bivia
[9] = system: Peptostreptococcus micros; assay: Agar dilution MIC, anaerobes; type: cell-based; conditions: single isolates, anaerobic agar dilution; for MIC: Parvimonas micra, read-out: MIC Peptostreptococcus micros
Clostridium camis = assay: Agar dilution MIC, anaerobes; type: cell-based; conditions: Clostridium; single isolates, anaerobic agar dilution; read-out: MIC Clostridium camis
Porphyromonas gingivalis = assay: Agar dilution MIC, anaerobes; type: cell-based; conditions: Porphyromonas gingivalis; single isolate, anaerobic agar dilution; read-out: MIC Porphyromonas gingivalis
[10] = system: Porphyromonas asaccharolytica; assay: Agar dilution MIC, anaerobes; type: cell-based; conditions: Porphyromonas asaccharolytica; single isolate, anaerobic agar dilution; read-out: MIC Porphyromonas asaccharolytica
[11] = system: Peptostreptococcus tetradius; assay: Agar dilution MIC, anaerobes; type: cell-based; conditions: Anaerococcus tetradius, single isolates, anaerobic agar dilution; read-out: MIC Peptostreptococcus tetradius
Bacteroides fragilis = assay: Agar dilution MIC, anaerobes; type: cell-based; conditions: single isolates, anaerobic agar dilution
Fusobacterium montiferum = assay: Agar dilution MIC, anaerobes; type: cell-based; conditions: Fusobacterium, single isolates, anaerobic agar dilution; read-out: MIC Fusobacterium montiferum
Clostridium perfringens = assay: microbe, parasite or virus in culture; type: cell-based; conditions: Clostridium perfringens, read-out: MIC Clostridium perfringens, single isolates, anaerobic agar dilution
[12] = anaerobes, Wilkins Chalgren agar, 48 hour

| Structure (SMILES) | MIC Fusobacterium varium (Fusobacterium varium) [µg/mL] | MIC Peptostreptococcus prevotii [1] [µg/mL] | MIC Eubacterium leutum (Eubacterium leutum) [µg/mL] | Geometric Mean (anaerobic bacteria; anaerobes) [µg/mL] | MIC Range (anaerobic bacteria; anaerobes) [µg/mL] | MIC Prevotella melaninogenica [4] [µg/mL] | MIC Prevotella intermedia (Prevotella intermedia) [µg/mL] | MIC Prevotella (Bacteroides) disiens [5] [µg/mL] | MIC50 [6] [µg/mL] | MIC90 [6] [µg/mL] | G.M. [6] [µg/mL] | MIC50 [7] [µg/mL] | MIC90 [7] [µg/mL] | G.M. [8] [µg/mL] | MIC (P. acnes) [µg/mL] | MIC (Fusobacterium varium) [µg/mL] | MIC [1] [µg/mL] | MIC (Prevotella bivia) [µg/mL] | MIC [9] [µg/mL] | MIC (Clostridium difficile) [µg/mL] | also measured |
| --- | --- | --- | --- | --- | --- | --- | --- | --- | --- | --- | --- | --- | --- | --- | --- | --- | --- | --- | --- | --- | --- |
| CC1(C)S[C@@H]2[C@H](NC(=O)[C@H](N)c3ccc(O)cc3)C(=O)N2[C@H]1C(=O)O [Amox] | 1 (≈ 2.74 µM) | 0.25 (≈ 0.684 µM) | 1 (≈ 2.74 µM) | 1.366 | 0.062 to 256 | 64 (≈ 175 µM) | 4 (≈ 10.9 µM) | >128 |  |  |  |  |  |  |  |  |  |  |  |  | MIC P. acnes (P. acnes): 0.25 µg/mL (≈ 0.684 µM); MIC Peptostreptococcus magnum [2]: 0.25 µg/mL and 0.5 µg/mL; MIC Clostridium difficile (Clostridium difficile): 1 µg/mL and 2 µg/mL; MIC Fusobacterium necrogenes (Fusobacterium necrogenes): 0.5 µg/mL (≈ 1.37 µM); MIC Peptostreptococcus asaccharolyticus [3]: 0.25 µg/mL (≈ 0.684 µM); MIC50 (anaerobic bacteria; [12]): 1 µg/mL (≈ 2.74 µM); MIC90 (anaerobic bacteria; [12]): 256 µg/mL (≈ 701 µM) |
| CC[C@H]1OC(=O)[C@H](C)[C@@H](O[C@H]2C[C@@](C)(OC)[C@@H](O)[C@H](C)O2)[C@H](C)[C@@H](O[C@@H]2O[C@H](C)C[C@H](N(C)C)[C@H]2O)[C@](C)(OC)C[C@@H](C)C(=O)[C@H](C)[C@@H](O)[C@]1(C)O [Clarithromycin] |  |  |  |  |  |  |  |  | 1 (≈ 1.34 µM) | 4 (≈ 5.35 µM) | 1.554 | 16 (≈ 21.4 µM) | 32 (≈ 42.8 µM) | 12.69 |  |  |  |  |  |  |  |
| C[C@@H](O)[C@H]1C(=O)N2C(C(=O)O)=C(SCCN=CN)C[C@H]12 [Imipenem] | 1 (≈ 3.34 µM) |  | 0.5 (≈ 1.67 µM) | 0.084 | 0.008 to 4 |  |  |  |  |  |  |  |  |  | ≤ 0.016 | 0.5 (≈ 1.67 µM) | ≤ 0.016 | 0.03 (≈ 0.1 µM) | 0.03 (≈ 0.1 µM) | 4 (≈ 13.4 µM) | MIC (Fusobacterium nucleatum): ≤ 0.016 µg/mL; MIC (Clostridium camis): 0.06 µg/mL (≈ 0.2 µM); MIC (Fusobacterium necrogenes): 0.25 µg/mL (≈ 0.835 µM); MIC (Porphyromonas gingivalis): ≤ 0.016 µg/mL; MIC (Eubacterium leutum): 0.25 µg/mL (≈ 0.835 µM); MIC [10]: 0.03 µg/mL (≈ 0.1 µM); MIC50 (anaerobic bacteria; 48 h): 0.064 µg/mL (≈ 0.214 µM); MIC90 (anaerobic bacteria; 48 h): 1 µg/mL (≈ 3.34 µM); MIC [4]: ≤ 0.016 µg/mL; MIC [11]: 0.03 µg/mL (≈ 0.1 µM); MIC (Prevotella intermedia): ≤ 0.016 µg/mL |
| NNC(=O)c1ccncc1 [Isoniazid] |  |  |  |  |  |  |  |  | 32 (≈ 233 µM) | 64 (≈ 467 µM) | 18.149 | 8 (≈ 58.3 µM) | 64 (≈ 467 µM) | 3.17 |  |  |  |  |  |  |  |
| Cc1ncc([N+](=O)[O-])n1CCO [Metronidazole] |  | 1 (≈ 5.84 µM) | 0.5 (≈ 2.92 µM) | 0.48 | 0.062 to 32 | 0.5 (≈ 2.92 µM) | 0.25 (≈ 1.46 µM) | 1 (≈ 5.84 µM) |  |  |  |  |  |  | > 16 | ≤ 0.125 | 2 (≈ 11.7 µM) | 1 (≈ 5.84 µM) | 0.25 (≈ 1.46 µM) | 0.25 (≈ 1.46 µM) | MIC Peptostreptococcus micros [9]: 0.5 µg/mL (≈ 2.92 µM); MIC (Clostridium camis): ≤ 0.125 µg/mL; MIC (Bacteroides fragilis; Bacteroides fragilis, read-out: MIC Bacteroides fragilis): 0.5 µg/mL (≈ 2.92 µM); MIC Bacteroides fragilis (Bacteroides fragilis): 1 µg/mL (≈ 5.84 µM); MIC (Fusobacterium necrogenes): 0.25 µg/mL (≈ 1.46 µM); MIC (Fusobacterium montiferum): ≤ 0.125 µg/mL; MIC (Porphyromonas gingivalis): ≤ 0.125 µg/mL; MIC (Eubacterium leutum): 0.25 µg/mL (≈ 1.46 µM); MIC [10]: ≤ 0.125 µg/mL; MIC50 (anaerobic bacteria; 48 h): 0.5 µg/mL (≈ 2.92 µM); MIC90 (anaerobic bacteria; 48 h): 2 µg/mL (≈ 11.7 µM); MIC [4]: 0.25 µg/mL (≈ 1.46 µM); MIC (Clostridium perfringens): 1 µg/mL (≈ 5.84 µM); MIC [11]: 1 µg/mL (≈ 5.84 µM); MIC (Prevotella intermedia): 0.5 µg/mL (≈ 2.92 µM); MIC ([5]; read-out: MIC Prevotella (Bacteroides) disiens): 0.5 µg/mL (≈ 2.92 µM) |
